# Tests used:
# K. pneumoniae ATCC43816 = experiment: Assay 4: boosting of antibiotic activity by EPI example 37 in K. pneumoniae ATCC43816; type: cell-based, Klebsiella pneumoniae; conditions: MIC of the named antibiotic boosted by 100 μM example 37
# Excerpt: (§1) Escherichia coli BW25113 (CGSC 7636) and its derivatives E. coli ΔtolC (JW5503-1, ΔtolC732::kan, CGSC 11430), E. coli ΔacrA (JW0452-3, ΔacrA748::kan, CGSC 11843) and E. coli ΔacrB (JW0451-2, ΔacrB747::kan, CGSC 8609) were obtained from E. coli Genetic Stock Center (CGSC, New Haven, Connecticut) and originated from the Keio Collection (Baba T et al, Mol Sys Biol, 2006). Klebsiella pneumoniae (LMG 2095/ATCC 13883) and K. pneumoniae (ATCC43816), Pseudomonas aeruginosa (PAO1), Acinetobacter baumannii (LMG 1025, ATCC 17978), were obtained from ATCC or BCCM/LMG Bacteria Collection. All bacteria were grown and tested in cation-adjusted Mueller-Hinton broth (CAMHB; BD Difco) at 37° C. For conservation, log phase bacteria were frozen (−80° C.) in CAMHB supplemented with 15% glycerol.
# (§2) Measurement of the Impact of EPI Example 37 on the Boosting of Antibiotic Activity in E. coli, A. baumannii, K. pneumoniae and P. aeruginosa.
# (§3) Bacterial suspensions were then prepared in CAMHB from a growing pre-culture, (E. coli [OD600=0.001], A. baumannii [OD600=0.001], K. pneumoniae [OD600=0.001] and P. aeruginosa [OD600=0.001]), and added to the microplate using a ViaFill. Microplate containing bacterial cultures were then grown (5 h or 24 h, 37° C.) and bacterial viability determined by either resazurin reduction or OD600.
# K. pneumoniae ATCC13883 = experiment: Assay 4: boosting of antibiotic activity by EPI example 37 in K. pneumoniae ATCC13883; type: cell-based, Klebsiella pneumoniae
# Excerpt: as §1, §2, §3
# P. aeruginosa PAO1 = experiment: Assay 4: boosting of antibiotic activity by EPI example 37 in P. aeruginosa; type: cell-based, Pseudomonas aeruginosa; conditions: MIC of the named antibiotic boosted by 100 μM example 37
# Excerpt: as §1, §2, §3
# E. coli BW25113 = experiment: Assay 4: boosting of antibiotic activity by EPI example 37 in E. coli; type: cell-based, Escherichia coli; conditions: MIC of the named antibiotic boosted by 100 μM example 37
# Excerpt: as §1, §2, §3
# A. baumannii LMG = experiment: Assay 4: boosting of antibiotic activity by EPI example 37 in A. baumannii; type: cell-based, Acinetobacter baumannii; conditions: MIC of the named antibiotic boosted by 100 μM example 37
# Excerpt: as §1, §2, §3
# [1] = system: A. baumannii LMG 1025 (ATCC 17978); experiment: Assay 2: growth inhibition of A. baumannii by sub-inhibitory chloramphenicol in combination with examples (resazurin reduction); type: cell-based; conditions: Acinetobacter baumannii; antibiotic alone, no EPI
# [2] = system: A. baumannii LMG 1025 (ATCC 17978); experiment: Assay 3: growth inhibition of A. baumannii by sub-inhibitory novobiocin in combination with examples (resazurin reduction); type: cell-based; conditions: Acinetobacter baumannii; antibiotic alone, no EPI
# [3] = MIC of the named antibiotic boosted by 100 μM example 37
SMILES,K. pneumoniae ATCC43816 Fold Boosted MIC By 100 μM example 37 (K. pneumoniae ATCC43816),K. pneumoniae ATCC13883 Fold Boosted MIC By 100 μM example 37 (K. pneumoniae ATCC13883; [3]),P. aeruginosa PAO1 Fold Boosted MIC By 100 μM example 37 (P. aeruginosa PAO1),E. coli BW25113 Fold Boosted MIC By 100 μM example 37 (E. coli BW25113),K. pneumoniae ATCC13883 Fold Boosted MIC By 100 μM example 37 (K. pneumoniae ATCC13883; 100 μM example 37),A. baumannii LMG Fold Boosted MIC By 100 μM example 37 (A. baumannii LMG),MIC90 [1],MIC90 [2]
"CC[C@H]1OC(=O)[C@H](C)[C@@H](O[C@H]2C[C@@](C)(OC)[C@@H](O)[C@H](C)O2)[C@H](C)[C@@H](O[C@@H]2O[C@H](C)C[C@H](N(C)C)[C@H]2O)[C@](C)(O)C[C@@H](C)CN(C)[C@H](C)[C@@H](O)[C@]1(C)O [Azithromycin (AZY), Azithromycin]",** (** = 4-7.9 fold),** (** = 4-7.9 fold),*** (*** = 8 fold +),–,–,–,–,–
"CC[C@H]1OC(=O)[C@H](C)[C@@H](O[C@H]2C[C@@](C)(OC)[C@@H](O)[C@H](C)O2)[C@H](C)[C@@H](O[C@@H]2O[C@H](C)C[C@H](N(C)C)[C@H]2O)[C@](C)(O)C[C@@H](C)C(=O)[C@H](C)[C@@H](O)[C@]1(C)O [Erythromycin (ERY), Erythromycin]",** (** = 4-7.9 fold),*** (*** = 8 fold +),–,** (** = 4-7.9 fold),–,–,–,–
"CC(=O)O[C@H]1C[C@@]2(C)[C@@H](C[C@@H](O)[C@H]3[C@@]4(C)CC[C@@H](O)[C@@H](C)[C@@H]4CC[C@@]32C)/C1=C(\CCC=C(C)C)C(=O)O [Fusidic Acid (FUS), Fusidic Acid]",** (** = 4-7.9 fold),–,–,*** (*** = 8 fold +),2-4 fold,–,–,–
"CC(=O)NC[C@H]1CN(c2ccc(N3CCOCC3)c(F)c2)C(=O)O1 [Linezolid (LIN), Linezolid]",*** (*** = 8 fold +),*** (*** = 8 fold +),* (* = 2-3.9 fold),*** (*** = 8 fold +),–,* (* = 2-3.9 fold),–,–
"Cc1onc(-c2ccccc2)c1C(=O)N[C@@H]1C(=O)N2[C@@H]1SC(C)(C)[C@@H]2C(=O)O [Oxacillin (OXA), Oxacillin]",*** (*** = 8 fold +),*** (*** = 8 fold +),* (* = 2-3.9 fold),*** (*** = 8 fold +),–,–,–,–
"CCN1CCN(C(=O)N[C@@H](C(=O)N[C@@H]2C(=O)N3[C@@H]2SC(C)(C)[C@@H]3C(=O)O)c2ccccc2)C(=O)C1=O [Piperacillin (PPC), Piperacillin]",* (* = 2-3.9 fold),* (* = 2-3.9 fold),–,** (** = 4-7.9 fold),–,–,–,–
"[H]/N=C(/N)N[C@H]1[C@H](O)[C@@H](O)[C@H](O[C@@H]2O[C@@H](C)[C@](O)(C=O)[C@H]2O[C@@H]2O[C@@H](CO)[C@H](O)[C@@H](O)[C@@H]2NC)[C@@H](N/C(N)=N\[H])[C@@H]1O [Streptomycin (STP), Streptomycin]",–,–,* (* = 2-3.9 fold),–,–,–,–,–
"Oc1cc(Cl)ccc1Oc1ccc(Cl)cc1Cl [Triclosan (TRC), Triclosan]",*** (*** = 8 fold +),*** (*** = 8 fold +),–,* (* = 2-3.9 fold),–,* (* = 2-3.9 fold),–,–
O=C(N[C@H](CO)[C@H](O)c1ccc([N+](=O)[O-])cc1)C(Cl)Cl [chloramphenicol],* (* = 2-3.9 fold),** (** = 4-7.9 fold),–,*** (*** = 8 fold +),–,* (* = 2-3.9 fold),25 to 100 µg/mL,–
CO[C@@H]1[C@@H](OC(N)=O)[C@@H](O)[C@H](Oc2ccc3c(O)c(NC(=O)c4ccc(O)c(CC=C(C)C)c4)c(=O)oc3c2C)OC1(C)C [novobiocin],** (** = 4-7.9 fold),*** (*** = 8 fold +),–,*** (*** = 8 fold +),–,–,–,12.5 µg/mL

# Source: US20240327354A1, “GRAM-NEGATIVE BACTERIA EFFLUX PUMP INHIBITORS” (INSTITUT NATIONAL DE LA SANTÉ ET DE LA RECHERCHE MÉDICALE, priority 2021, published 2024)
